The values below come from US10960037B2, “Method of treating neurological conditions with extract of Nerium species or Thevetia species” (PHOENIX BIOTECHNOLOGY, INC., priority 2010, dated 2021).

The test system of the experiment is 5×-ARE-luciferase transcriptional reporter in primary corticostriatal neuronal co-cultures. Briefly: Nrf2 activation, 5×ARE-luciferase reporter assay. It is filed as cell-based, mouse. As to conditions: 7 h and 24 h treatment. The protocol: Activation of the 5×-ARE luciferase reporter became stronger with an apparent left-shift in concentration-response for extended treatment over 24 h compared to 7 h. Fold-expression changes are expressed relative to the DMSO-carrier only condition (“0”) normalized to a co-transfected, constitutive Renilla luciferase control and set to a value of 1.
Primary corticostriatal neuronal co-cultures were prepared from E18 Sprague-Dawley rat or C57Bl/6 mouse embryos of either gender. For luciferase reporter assays, the Cignal Antioxidant Response Reporter kit (Qiagen) was used. The 5×ARE luciferase reporter mixture at 40:1 luciferase:Renilla plasmid was transfected into cortical and striatal neurons separately using an Amaxa electroporation device (Lonza). After electroporation, neurons were pooled and immediately plated into 96-well plates containing mature glial cultures. After culturing for 96 h, neuroprotective compositions were added at the indicated concentrations for 7 or 24 h prior to harvesting using Dual-Glo Luciferase Assay System protocol and reagents (Promega). Dual-wavelength luminescence was detected using a SpectraMax L microplate reader (Molecular Devices). Luciferase values were normalized to the internal Renilla control and fold-expression over the DMSO-only treatment control was calculated. At least 3 independent experiments were done using 4-6 biological replicates.
On the technique in general: In a reporter assay the amount or activity of a reporter protein is the signal.

For `CC1(C)CC[C@]2(C(=O)O)CC[C@]3(C)[C@H](C(=O)C=C4[C@@]5(C)C=C(C#N)C(=O)C(C)(C)[C@@H]5CC[C@]43C)[C@@H]2C1` [bardoxolone], the “induction of 5×-ARE-luciferase reporter” value is “Concentration- and time-dependent induction”.
